In PubChem BioAssay AID248 (DTP/NCI, 2004) one finds T/C data, which are given here for 16 compounds.

The test system of this assay is L1210 leukemia ip in BDF1 mice, survival T/C. Put plainly: NCI In Vivo Anticancer Drug Screen. Data for tumor model L1210 Leukemia (intraperitoneal) in B6D2F1 (BDF1) mice. The conditions noted are these: higher = longer survival. The method, boiled down:
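Tumor was transplanted into mice, which were then dosed with test compound or vehicle alone. Survival was recorded for each group, and the treated figure was expressed relative to the control figure.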

Setting [1] is: endpoint: mean survival time, dose: 75.0 mg/kg/injection, schedule: Q01DX001 (ip), vehicle: saline.
Setting [2] is: endpoint: mean survival time, dose: 100.0 mg/kg/injection, schedule: Q01DX009 (ip), vehicle: Klucel (hydroxypropylcellulose) (HPC).
Setting [3] is: endpoint: mean survival time, dose: 200.0 mg/kg/injection, schedule: Q01DX009 (ip), vehicle: Klucel (hydroxypropylcellulose) (HPC).
[4] abbreviates: endpoint: mean survival time, dose: 400.0 mg/kg/injection, schedule: Q01DX009 (ip), vehicle: Klucel (hydroxypropylcellulose) (HPC).
Where [5] appears, read: endpoint: mean survival time, dose: 50.0 mg/kg/injection, schedule: Q01DX009 (ip), vehicle: saline.
The mark [6] stands for this setting: endpoint: mean survival time, dose: 100.0 mg/kg/injection, schedule: Q01DX009 (ip), vehicle: saline.
Setting [7] is: endpoint: mean survival time, dose: 100.0 mg/kg/injection, schedule: Q04DX003 (ip), vehicle: saline with Tween-80.
The mark [8] stands for this setting: endpoint: mean survival time, dose: 200.0 mg/kg/injection, schedule: Q04DX003 (ip), vehicle: saline with Tween-80.
[9] abbreviates: endpoint: mean survival time, dose: 400.0 mg/kg/injection, schedule: Q04DX003 (ip), vehicle: saline with Tween-80.
Where [10] appears, read: endpoint: mean survival time, dose: 12.5 mg/kg/injection, schedule: Q01DX009 (ip), vehicle: saline.
Where [11] appears, read: endpoint: mean survival time, dose: 12.5 mg/kg/injection, schedule: Q04DX003 (ip), vehicle: saline.
The mark [12] stands for this setting: endpoint: mean survival time, dose: 25.0 mg/kg/injection, schedule: Q01DX009 (ip), vehicle: saline.
The mark [13] stands for this setting: endpoint: mean survival time, dose: 25.0 mg/kg/injection, schedule: Q04DX003 (ip), vehicle: saline.
Setting [14] is: endpoint: mean survival time, dose: 50.0 mg/kg/injection, schedule: Q04DX003 (ip), vehicle: saline.
Setting [15] is: endpoint: mean survival time, dose: 100.0 mg/kg/injection, schedule: Q01DX001 (ip), vehicle: saline.
Setting [16] is: endpoint: mean survival time, dose: 200.0 mg/kg/injection, schedule: Q01DX001 (ip), vehicle: saline.
The mark [17] stands for this setting: endpoint: mean survival time, dose: 400.0 mg/kg/injection, schedule: Q01DX001 (ip), vehicle: saline.
Where [18] appears, read: endpoint: mean survival time, dose: 200.0 mg/kg/injection, schedule: Q01DX009 (ip), vehicle: saline.
Setting [19] is: endpoint: mean survival time, dose: 400.0 mg/kg/injection, schedule: Q01DX009 (ip), vehicle: saline.

Structures are written as SMILES. “And” between values parts separate entries of the source, which are not always exact repeats. Equal values may be shown once. Toxic doses and inconclusive results are not listed.

Turning to `COc1ccc2c3c1OC1C(O)CCC4C(C2)N(C)CCC341` (centres undefined), the T/C under setting [1] is 92 % of control; the T/C (endpoint: mean survival time, dose: 100.0 mg/kg/injection, schedule: Q01DX001 (ip), vehicle: saline with Tween-80) is 102 % of control; the T/C (endpoint: mean survival time, dose: 150.0 mg/kg/injection, schedule: Q01DX001 (ip), vehicle: saline) is 94 % of control; the T/C (endpoint: mean survival time, dose: 200.0 mg/kg/injection, schedule: Q01DX001 (ip), vehicle: saline with Tween-80) was 102 % of control; the T/C (endpoint: mean survival time, dose: 300.0 mg/kg/injection, schedule: Q01DX001 (ip), vehicle: saline) was 101 % of control.
As to `O=P(CCl)(NC12CC3CC(CC(C3)C1)C2)N1CC1` (centres undefined), the T/C was 100 % of control (endpoint: mean survival time, dose: 50.0 mg/kg/injection, schedule: Q04DX003 (ip), vehicle: Klucel (hydroxypropylcellulose) (HPC)); 97 % of control under setting [2]; 95 % of control (endpoint: mean survival time, dose: 100.0 mg/kg/injection, schedule: Q04DX003 (ip), vehicle: Klucel (hydroxypropylcellulose) (HPC)); 95 % of control under setting [3]; 103 % of control (endpoint: mean survival time, dose: 200.0 mg/kg/injection, schedule: Q04DX003 (ip), vehicle: Klucel (hydroxypropylcellulose) (HPC)); 103 % of control under setting [4]. Under “endpoint: mean survival time, dose: 400.0 mg/kg/injection, schedule: Q04DX003 (ip), vehicle: Klucel (hydroxypropylcellulose) (HPC)”, the T/C is 97 % of control.
For `COC(C(OC)N1CCOCC1)N1CCOCC1` (centres undefined), the T/C was 102 % of control under setting [5]; 95 % of control (endpoint: mean survival time, dose: 100.0 mg/kg/injection, schedule: Q01DX009 (ip), vehicle: saline with Tween-80); 110 % of control under setting [6]; 93 % of control under setting [7]; 90 % of control (endpoint: mean survival time, dose: 132.0 mg/kg/injection, schedule: Q01DX009 (ip), vehicle: saline with Tween-80); 101 % of control and 97 % of control (endpoint: mean survival time, dose: 200.0 mg/kg/injection, schedule: Q01DX009 (ip), vehicle: saline with Tween-80). Also, the T/C reads like this: under setting [8], 98 % of control; (endpoint: mean survival time, dose: 300.0 mg/kg/injection, schedule: Q01DX009 (ip), vehicle: saline with Tween-80) 99 % of control; (endpoint: mean survival time, dose: 400.0 mg/kg/injection, schedule: Q01DX009 (ip), vehicle: saline with Tween-80) 89 % of control; under setting [9], 94 % of control.
On to `[Cu+2].[NH-]C(CC(N)=O)C(=O)O.[NH-]C(CC(N)=O)C(=O)O` (centres undefined), for which the T/C is, setting by setting: under setting [10], 107 % of control; under setting [11], 92 % of control; under setting [12], 98 % of control; under setting [13], 94 % of control; under setting [14], 87 % of control.
`O=C(Oc1ccccc1)C(Cl)(Cl)Cl`: the T/C by setting is: (endpoint: mean survival time, dose: 6.25 mg/kg/injection, schedule: Q01DX009 (ip), vehicle: saline) 95 % of control; under setting [10], 92 % of control; under setting [12], 89 % of control; (endpoint: mean survival time, dose: 100.0 mg/kg/injection, schedule: Q01DX001 (ip), vehicle: acetone) 98 % of control; (endpoint: mean survival time, dose: 100.0 mg/kg/injection, schedule: Q04DX003 (ip), vehicle: acetone) 95 % of control; (endpoint: mean survival time, dose: 200.0 mg/kg/injection, schedule: Q01DX001 (ip), vehicle: acetone) 90 % of control. For the same compound, the T/C (endpoint: mean survival time, dose: 200.0 mg/kg/injection, schedule: Q04DX003 (ip), vehicle: acetone) was 98 % of control and the T/C (endpoint: mean survival time, dose: 400.0 mg/kg/injection, schedule: Q01DX001 (ip), vehicle: acetone) was 100 % of control.
For `CC(=O)Nc1ccc(NC(=O)NC(C)(C)C)cc1`, the T/C runs as follows: under setting [2], 97 % of control; under setting [3], 96 % of control; under setting [4], 96 % of control.
Turning to `Nc1ccn(C2OC(COP(=O)(O)O)C(O)C2O)c(=O)n1` (centres undefined), the T/C runs as follows: (endpoint: mean survival time, dose: 2.5 mg/kg/injection, schedule: Q01DX009 (ip), vehicle: other) 108 % of control; (endpoint: mean survival time, dose: 5.0 mg/kg/injection, schedule: Q01DX009 (ip), vehicle: other) 96 % of control; (endpoint: mean survival time, dose: 10.0 mg/kg/injection, schedule: Q01DX009 (ip), vehicle: other) 116 % of control; (endpoint: mean survival time, dose: 18.0 mg/kg/injection, schedule: Q01DX Z (ip), vehicle: saline) 193 % of control; (endpoint: mean survival time, dose: 26.5 mg/kg/injection, schedule: Q01DX Z (ip), vehicle: saline) 195 % of control; (endpoint: mean survival time, dose: 40.0 mg/kg/injection, schedule: Q01DX Z (ip), vehicle: saline) 218 % of control. Also, the T/C (endpoint: mean survival time, dose: 60.0 mg/kg/injection, schedule: Q01DX Z (ip), vehicle: saline) is 157 % of control; the T/C (endpoint: median survival time, dose: 22.0 mg/kg/injection, schedule: Q01DX009 (ip), vehicle: sodium bicarbonate) was 171 % of control; the T/C (endpoint: median survival time, dose: 33.0 mg/kg/injection, schedule: Q01DX009 (ip), vehicle: sodium bicarbonate) is 177 % of control; the T/C (endpoint: median survival time, dose: 46.0 mg/kg/injection, schedule: Q01DX009 (ip), vehicle: sodium bicarbonate) is 177 % of control; the T/C (endpoint: median survival time, dose: 66.0 mg/kg/injection, schedule: Q01DX009 (ip), vehicle: sodium bicarbonate) is 181 % of control.
For `O=[N+]([O-])c1ccc(OCc2ccccc2)cc1`, the T/C under setting [7] was 96 % of control, the T/C under setting [8] is 92 % of control and the T/C under setting [9] was 94 % of control.
In the case of `Cc1ccc(C#N)s1`, the T/C runs as follows: (endpoint: mean survival time, dose: 3.12 mg/kg/injection, schedule: Q01DX009 (ip), vehicle: other) 98 % of control; (endpoint: mean survival time, dose: 6.25 mg/kg/injection, schedule: Q01DX009 (ip), vehicle: other) 104 % of control; (endpoint: mean survival time, dose: 12.5 mg/kg/injection, schedule: Q01DX009 (ip), vehicle: other) 98 % of control; (endpoint: mean survival time, dose: 16.0 mg/kg/injection, schedule: Q04DX003 (ip), vehicle: saline) 102 % of control; (endpoint: mean survival time, dose: 25.0 mg/kg/injection, schedule: Q01DX009 (ip), vehicle: other) 106 % of control; under setting [13], 117 % of control.
Consider `Oc1ccccc1C=Nc1ccc(Cl)cc1`, for which the T/C is, setting by setting: (endpoint: mean survival time, dose: 100.0 mg/kg/injection, schedule: Q04DX002 (ip), vehicle: saline with Tween-80) 105 % of control; (endpoint: mean survival time, dose: 200.0 mg/kg/injection, schedule: Q04DX002 (ip), vehicle: saline with Tween-80) 105 % of control; (endpoint: mean survival time, dose: 400.0 mg/kg/injection, schedule: Q04DX002 (ip), vehicle: saline with Tween-80) 97 % of control.
Take `C[N+](C)(C)CCC(=O)c1ccccc1`: the T/C is 97 % of control under setting [11], 100 % of control under setting [13], 94 % of control under setting [14] and 102 % of control under setting [1].
As to `Cc1cc(N(CCCOS(C)(=O)=O)CCCOS(C)(=O)=O)ccc1C=Nc1cccc(Cl)c1`, the T/C is 97 % of control under setting [7], 98 % of control under setting [8] and 92 % of control under setting [9].
As to `COc1ccc(C(=O)OC(c2ccccc2)c2ccccc2)cc1`, the T/C runs as follows: under setting [15], 98 % of control; under setting [16], 100 % of control; under setting [17], 89 % of control.
In the case of `Cn1ccnc1Oc1ccc(Cl)cc1`, the T/C is 106 % of control (endpoint: mean survival time, dose: 12.5 mg/kg/injection, schedule: Q04DX002 (ip), vehicle: Klucel (hydroxypropylcellulose) (HPC)) and 100 % of control (endpoint: mean survival time, dose: 50.0 mg/kg/injection, schedule: Q04DX002 (ip), vehicle: Klucel (hydroxypropylcellulose) (HPC)).
On to `CN(C)CCOC(=O)COc1ccc(Cl)cc1`, for which the T/C is, setting by setting: under setting [12], 96 % of control; under setting [13], 93 % of control; under setting [5], 100 % of control; under setting [14], 98 % of control; under setting [6], 97 % of control; (endpoint: mean survival time, dose: 100.0 mg/kg/injection, schedule: Q04DX003 (ip), vehicle: saline) 90 % of control. The T/C under setting [18] is 96 % of control; the T/C (endpoint: mean survival time, dose: 200.0 mg/kg/injection, schedule: Q04DX003 (ip), vehicle: saline) is 114 % of control; the T/C under setting [19] is 96 % of control; the T/C (endpoint: mean survival time, dose: 400.0 mg/kg/injection, schedule: Q04DX003 (ip), vehicle: saline) is 101 % of control.
Turning to `O=S1(=O)CCC(O)C1` (centres undefined), the T/C runs as follows: under setting [15], 92 % of control; under setting [6], 93 % of control; under setting [16], 97 % of control; under setting [18], 105 % of control; under setting [17], 100 % of control; under setting [19], 100 % of control.
